Data: patent US9902735B2, “Heteroaryl substituted compounds as RORγ inhibitors” (GlaxoSmithKline Intellectual Property Developement Limited, priority 2014, dated 2018)

Target: T1, RORγ (Homo sapiens, UniProt P51449)
T1 construct: expressed in transfected cells
T1 sequence (P51449 1-497 isoform P51449-2): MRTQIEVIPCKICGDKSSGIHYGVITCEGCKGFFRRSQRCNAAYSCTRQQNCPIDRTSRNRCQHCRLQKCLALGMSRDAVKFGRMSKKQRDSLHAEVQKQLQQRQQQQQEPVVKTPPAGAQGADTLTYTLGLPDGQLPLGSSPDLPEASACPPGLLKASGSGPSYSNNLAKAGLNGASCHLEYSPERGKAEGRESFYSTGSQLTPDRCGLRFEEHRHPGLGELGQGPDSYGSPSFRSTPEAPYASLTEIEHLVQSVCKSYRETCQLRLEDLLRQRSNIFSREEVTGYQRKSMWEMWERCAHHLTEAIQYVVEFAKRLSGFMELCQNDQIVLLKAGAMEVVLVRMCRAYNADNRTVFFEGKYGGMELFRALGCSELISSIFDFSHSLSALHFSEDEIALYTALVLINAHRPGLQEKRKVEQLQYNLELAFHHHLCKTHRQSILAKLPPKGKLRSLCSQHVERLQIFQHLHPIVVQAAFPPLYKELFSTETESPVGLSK
Assay: Jurkat cell luciferase assay (human IL17 promoter reporter)
Type: cell-based
Details: mean of multiple test results if tested more than once; read-out: pIC50 in the Jurkat cell luciferase assay (converted)
Description: RORγ is known to bind to a CNS (conserved non-coding sequences) enhancer element in the IL17 promoter. In this assay, RORγ activity is indirectly assessed using a luciferase reporter construct which contains the human IL17 promoter having the RORγ-specific CNS enhancer element. Inhibition of RORγ activity by a compound will result in a decrease in luciferase activity of Jurkat cells transfected with the reporter construct.
For the luciferase reporter plasmid, the 3 Kb human IL17 promoter containing the RORγ-specific CNS enhancer element was PCR amplified from human genomic DNA and cloned into a pGL4-Luc2/hygro reporter plasmid sequentially as XhoI-HindIII (1.1 Kb) and KpnI-XhoI (1.9 Kb) fragments. For the 1.1 Kb fragment, PCR was used to amplify human IL17 proximal promoter region from genomic DNA of 293T cells using primers as follows: forward primer, 5′-[…]-3′ (XhoI site is underlined) and reverse primer, 5′-[…]-3′ (HindIII site is underlined). The 1.1 kb DNA bands were excised, purified, and inserted into pMD19-T Simple Vector (Takara). […]
Compounds were dissolved in DMSO at three concentrations, 10 mM, 400 uM and 16 uM, and were dispensed into 384-wells assay plate at 40 nl, 12.5 nl, 5 nl respectively. The volume was adjusted with pure DMSO to a give a final uniform volume of 40 nl Jurkat cells described above were counted and centrifuged. […]

## Cc1ncc(C(=O)Nc2cc(Cl)cc(CN3CCN(C(=O)CC4CC4)[C@@H](C)C3)c2C)cc1F [Example 80, (S)—N-(5-chloro-3-((4-(2-cyclopropylacetyl)-3-methylpiperazin-1-yl)methyl)-2-methylphenyl)-5-fluoro-6-methylnicotinamide]
  IC50: ~6.31 nM
